# In patent US7935506B2, “Method for producing a lower alkyl ester of α-L-aspartyl-L-phenylalanine” (priority 2001, dated 2011):
# How the values were obtained:
# Assay type in all cases: cell-based
# Conditions in all cases: 37° C.
# [1] = system: E. coli strain TG1 (pYDDG1); assay: Growth on M9 glucose minimal agar plates containing inhibitor, strain TG1 (pYDDG1)
# Procedure: (§1) The pYDDG1 and pYDDG2 plasmids and the pUC19 and pAYCTER3 vectors were introduced into E. coli strain TG1. Thus the strains TG1 (pYDDG1), TG1 (pYDDG2), TG1 (pUC19) and TG1 (pAYCTER3) were obtained.
# (§2) Then the ability of these strains to grow in the presence of amino acids and amino acid analogues for each strain were determined on M9 glucose minimal agar plates containing graded concentrations of inhibitor. The plates were spotted with 10^6 to 10^7 cells from an overnight culture grown in a minimal medium (supplemented with 100 μg/ml of ampicillin for plasmid strains). The growth was estimated after 44 h incubation at 37° C.
# [2] = system: E. coli strain TG1 (pUC19); assay: Growth on M9 glucose minimal agar plates containing inhibitor, strain TG1 (pUC19)
# Procedure: as §1, §2
# [3] = system: E. coli strain TG1 (pYDDG2); assay: Growth on M9 glucose minimal agar plates containing inhibitor, strain TG1 (pYDDG2)
# Procedure: as §1, §2
# Further: key: +: good growth; ±: pour growth; −: no growth.
compound,measurement,setting,value
NC(Cc1c[nH]c2ccc(F)cc12)C(=O)O (racemic) [5-fluoro-DL-tryptophane],Growth after 44 h TG1 (pYDDG1),[1]; substrate 0.0005 mg/ml,+
same,Growth after 44 h TG1 (pUC19),[2]; substrate 0.0005 mg/ml,−
NC(Cc1ccc(F)cc1)C(=O)O (racemic) [p-fluoro-DL-phenylalanine],Growth after 44 h TG1 (pYDDG2),[3]; substrate 1.0 mg/ml,+
same,Growth after 44 h TG1 (pYDDG2),[3]; substrate 2.0 mg/ml,−
same,Growth after 44 h TG1 (pYDDG1),[1]; substrate 1.0 mg/ml,+
same,Growth after 44 h TG1 (pYDDG1),[1]; substrate 2.0 mg/ml,+
same,Growth after 44 h TG1 (pUC19),[2]; substrate 1.0 mg/ml,−
same,Growth after 44 h TG1 (pUC19),[2]; substrate 2.0 mg/ml,−
N[C@@H](Cc1ccccc1)C(=O)O [L-phenylalanine],Growth after 44 h TG1 (pYDDG2),[3]; substrate 20.0 mg/ml,±
same,Growth after 44 h TG1 (pYDDG1),[1]; substrate 20.0 mg/ml,+
same,Growth after 44 h TG1 (pUC19),[2]; substrate 20.0 mg/ml,−
